In ChEMBL document CHEMBL2401650, “Selective inhibition of human acetylcholinesterase by xanthine derivatives: in vitro inhibition and molecular modeling investigations” (Bioorg Med Chem Lett, 2013):

What was measured:
Cholinesterase = Cholinesterase (Homo sapiens, UniProt P06276)
Description: Inhibition of human BuChE using S-butyrylthiocholine iodide as substrate treated 5 mins before substrate addition measured up to 4 mins by Ellman's method

Acetylcholinesterase = Acetylcholinesterase (Homo sapiens, UniProt P22303); assay: Inhibition of human AChE using acetylthiocholine iodide as substrate treated 5 mins before substrate addition measured up to 4 mins by Ellman's method
Sequence of Acetylcholinesterase (P22303 whole entry): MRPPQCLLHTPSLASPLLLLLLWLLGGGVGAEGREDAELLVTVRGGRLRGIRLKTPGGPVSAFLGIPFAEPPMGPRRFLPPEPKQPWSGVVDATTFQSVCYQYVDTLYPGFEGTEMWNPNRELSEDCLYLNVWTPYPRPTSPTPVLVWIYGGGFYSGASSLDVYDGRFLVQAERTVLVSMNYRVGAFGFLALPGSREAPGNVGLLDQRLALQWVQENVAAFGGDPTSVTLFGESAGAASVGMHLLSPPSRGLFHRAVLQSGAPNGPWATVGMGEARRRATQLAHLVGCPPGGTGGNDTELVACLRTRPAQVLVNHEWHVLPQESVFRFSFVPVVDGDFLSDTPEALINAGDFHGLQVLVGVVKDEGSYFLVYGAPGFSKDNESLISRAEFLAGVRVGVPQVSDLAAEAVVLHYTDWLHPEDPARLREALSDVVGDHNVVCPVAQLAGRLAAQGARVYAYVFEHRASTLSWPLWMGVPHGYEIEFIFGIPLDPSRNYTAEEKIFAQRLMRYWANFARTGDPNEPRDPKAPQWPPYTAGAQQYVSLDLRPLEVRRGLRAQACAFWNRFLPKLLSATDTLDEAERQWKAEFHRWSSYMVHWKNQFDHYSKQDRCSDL

Sequence of Cholinesterase (P06276 whole entry): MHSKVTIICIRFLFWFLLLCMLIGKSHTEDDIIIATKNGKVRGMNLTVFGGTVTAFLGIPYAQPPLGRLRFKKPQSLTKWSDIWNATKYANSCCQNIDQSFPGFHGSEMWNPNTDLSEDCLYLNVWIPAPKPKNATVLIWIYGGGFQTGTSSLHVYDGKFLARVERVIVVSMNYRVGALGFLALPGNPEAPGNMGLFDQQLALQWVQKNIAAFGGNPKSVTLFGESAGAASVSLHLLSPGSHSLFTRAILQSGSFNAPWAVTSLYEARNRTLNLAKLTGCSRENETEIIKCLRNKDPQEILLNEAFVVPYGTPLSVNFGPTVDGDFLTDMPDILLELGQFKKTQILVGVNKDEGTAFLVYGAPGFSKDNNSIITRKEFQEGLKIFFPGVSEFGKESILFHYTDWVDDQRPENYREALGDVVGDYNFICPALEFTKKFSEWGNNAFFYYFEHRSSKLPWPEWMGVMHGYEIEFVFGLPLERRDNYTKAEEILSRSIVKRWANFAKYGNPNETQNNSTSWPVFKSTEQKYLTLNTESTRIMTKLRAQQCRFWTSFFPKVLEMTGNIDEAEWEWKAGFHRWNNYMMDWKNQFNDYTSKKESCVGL

Compound CC(=O)CCCCn1c(=O)c2c(ncn2C)n(C)c1=O [PENTOXIFYLLINE] has an IC50 (Cholinesterase) of over 50 µM and an IC50 (Acetylcholinesterase) of 6.6 µM.
CCCn1cnc2c1c(=O)n(CCCCC(C)=O)c(=O)n2C [PROPENTOFYLLINE] was tested, and the IC50 (Cholinesterase) was over 50 µM and the IC50 (Acetylcholinesterase) was 6.4 µM.
With O=c1[nH]c(=O)c2[nH]cnc2[nH]1 [XANTHINE] the IC50 (Cholinesterase) was over 50 µM and the IC50 (Acetylcholinesterase) was 9 µM.
